Data published in US20120157401A1, “METHODS FOR TREATING NEUROFIBROMATOSIS” (PTC Therapeutics, Inc., priority 2009, published 2012).
Several values for one entry are separate records, joined by “and”; a condition that tells them apart may be missing. Identical values can stand only once. Like-named read-outs stand apart in the source and are kept apart here. Marks after values point to notes of the source that are not given here.

What was measured:
[1] = test system: normal human keratinocyte; assay: ATP viability assay in keratinocytes; format: cell-based; conditions: any concentration tested
Protocol: Experimental Design. Nontransformed normal human keratinocyte cell cultures were established under normoxic conditions (21% oxygen). […] At the completion of treatment, cells were assessed for viability with an ATP assay and conditioned media were evaluated for VEGF protein levels by ELISA (as described in Section 9.1.1.1).

Human VEGF-A = assay: HT1080 xenograft selectivity studies: intratumoral VEGF-A ELISA; format: in vivo; conditions: Study 5, 15-days, treatment initiated at ~600 mm^3
Description: Experimental Design. […] All of these factors can be produced at tumor sites, and all may support tumor growth and metastases. See Yoon et al., Circ Res. 2003, 93(2):87 90; Ferrara et al., Nat. Rev. Drug Discov. […] Biophys. Acta 2004,1654(1):79 94; Saharinen et al., Trends Immunol. 2004, 25(7):387 95. There is also evidence that VEGF-A may stimulate production of P1GF by a post transcriptional mechanism. See Yao et al., FEBS Lett. 2005, 579(5):1227 34. VEGF-B was not assessed. […] See Vagner at al., Mol. Cell. Biol. 1995, 15(1):35 44; Hellen et al., Genes Dev. 2001, 15(13):1593 612. The survivin protein was similarly evaluated because the survivin mRNA has an IRES. PDGF was assessed because this protein has angiogenic activity and its mRNA contains an IRES. See Sella et al., Mol. Cell. Biol. 1999, 19(8):5429 40; Hellen et al., supra. Endostatin was included because antiangiogenic treatment in vivo has shown that compensatory […] in endogenous angiogenic inhibitors such as endostatin, thrombospondin, and angiostatin, results in a more pro angiogenic environment. See Sim, Angiogenesis, 1998, 2(1):37-48.
In all of these experiments, HT1080 cells (5×10^6 cells/mouse) were implanted subcutaneously in male athymic nude mice. When tumors had become established, mice were divided into groups (10 mice/group). […] Tumor size was measured by calipers at the beginning and end of treatment. […]

[2] = Trough plasma concentrations of Compound #10 in HT1080 xenograft mice (HPLC-MS/MS); format: in vivo; conditions: athymic nude, mouse, oral, 1 mg/kg BID
[3] = test system: HT1080 tumor cells in vivo; assay: HT1080 xenograft studies of Compound 1205, Compound #10 and Compound 1330: tumor growth; parameters: species or system athymic nude mice; conditions: Study 24a, 10 mg/kg QD
Description: Experimental Design. HT1080 cells (5×10^6 cells/mouse) were implanted subcutaneously in male athymic nude mice. […] For comparison, Compound #10 was included in this study.

MDA-MB-468 xenografts = assay: MDA-MB-468 estrogen-insensitive breast cancer xenograft: tumor growth; format: in vivo
Protocol: Tumor size was measured by calipers at periodic intervals. When the individual tumor size in a mouse exceeded 1500 mm^3, that mouse was sacrificed and both tumor and plasma were assayed for pathologic VEGF concentration as described in Section 9.1.1.1.

HT1080 cells = assay: HT1080 spheroid cell viability and mobility (migration after re-plating); format: cell-based, human
Protocol: Experimental Design. […] Pictures were then taken 48 hours to assess the migration and proliferation of the cells across the well's surface.

[4] = Respiratory safety pharmacology in awake telemeterized dogs; format: in vivo, beagle dogs; conditions: single oral doses of 30, 60, and 120 mg/kg, male dogs
[5] = Oral toxicokinetics in dogs; format: in vivo, beagle dogs
Protocol: The pharmacokinetic evaluations in mice were adjuncts to the primary pharmacodynamic xenograft studies. The evaluations in rats included toxicokinetic assessments in single-dose, 7-day, and 28-day toxicology studies as well as a mass-balance study after a single oral dose of ^14C-Compound #10. The evaluations in dogs included toxicokinetic assessments in 7-day and 28-day toxicology studies. In the studies performed, rodents were dosed once daily with Compound #10 formulated in vehicle and administered via oral gavage.

[6] = In vitro plasma protein binding of 14C-radiolabeled Compound #10; format: in vitro ADME, mice, rats, dogs, monkeys, and humans; conditions: mouse, rat, dog, monkey, human, all species, 0.05 to 50 μg/mL, read-out: Plasma protein binding, overall mean
CYP2D6 = biological target: T1, CYP2D6 (Homo sapiens, UniProt P10635); assay: CYP inhibition in human hepatic microsomes / recombinant isoenzymes: CYP2D6; format: in vitro ADME; conditions: human hepatic microsomes or recombinant isoenzymes
T1 construct: host or cells: human hepatic microsomes or recombinant isoenzyme (not distinguished)
T1 sequence (P10635 whole entry): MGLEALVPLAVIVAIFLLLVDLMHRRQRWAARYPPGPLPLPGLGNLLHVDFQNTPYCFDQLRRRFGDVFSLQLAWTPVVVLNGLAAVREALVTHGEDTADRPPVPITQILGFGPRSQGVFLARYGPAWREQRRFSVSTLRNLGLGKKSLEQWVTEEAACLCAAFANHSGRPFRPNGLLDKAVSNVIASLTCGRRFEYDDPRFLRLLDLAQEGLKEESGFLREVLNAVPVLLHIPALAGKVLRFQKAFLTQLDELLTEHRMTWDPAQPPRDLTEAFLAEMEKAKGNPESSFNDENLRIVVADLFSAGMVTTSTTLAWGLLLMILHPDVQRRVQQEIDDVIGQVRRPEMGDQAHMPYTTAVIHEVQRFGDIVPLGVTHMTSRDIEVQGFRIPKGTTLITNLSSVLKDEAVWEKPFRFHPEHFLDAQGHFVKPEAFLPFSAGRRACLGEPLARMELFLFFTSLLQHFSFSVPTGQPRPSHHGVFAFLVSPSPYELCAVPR
Description: (§1) It is possible that in certain clinical trial subjects, such agents may need to be adjusted for dosing or replaced by alternative agents that are not metabolized by CYP2D6, particularly when such agents may have a low therapeutic index.

CYPC19 = biological target: T2, CYPC19 (Homo sapiens, UniProt P33261); assay: CYP inhibition: CYPC19; format: in vitro ADME; conditions: human hepatic microsomes or recombinant isoenzymes
T2 construct: host or cells: human hepatic microsomes or recombinant isoenzyme (not distinguished)
T2 sequence (P33261 whole entry): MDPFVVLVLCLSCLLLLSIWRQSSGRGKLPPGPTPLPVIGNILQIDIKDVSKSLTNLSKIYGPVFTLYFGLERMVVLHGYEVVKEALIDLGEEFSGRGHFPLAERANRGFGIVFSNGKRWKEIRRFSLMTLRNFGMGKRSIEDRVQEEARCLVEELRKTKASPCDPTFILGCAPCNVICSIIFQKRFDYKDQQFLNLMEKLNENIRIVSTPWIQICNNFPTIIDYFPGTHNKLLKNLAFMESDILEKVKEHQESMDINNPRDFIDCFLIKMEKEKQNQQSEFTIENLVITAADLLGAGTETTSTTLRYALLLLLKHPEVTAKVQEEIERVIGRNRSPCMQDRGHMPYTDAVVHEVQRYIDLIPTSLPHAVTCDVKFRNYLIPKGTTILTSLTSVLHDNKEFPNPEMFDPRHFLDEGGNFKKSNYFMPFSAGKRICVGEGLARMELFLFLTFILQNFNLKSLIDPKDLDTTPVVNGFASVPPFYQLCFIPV
Description: as §1

[7] = 7-day oral toxicity study in rats; format: in vivo
Protocol: A battery of genotoxicity studies was also performed. […] The L23 vehicle was used.
Maximal exposures occurred at a dose of 120 mg/kg/day.

[8] = test system: bacterial reverse mutation; assay: Bacterial reverse mutation study; format: cell-based; conditions: with and without metabolic activation
Protocol: (§2) Genotoxicity was assessed in a battery of in vitro and in vivo studies that included a bacterial reverse mutation study, a chromosome aberration study in Chinese hamster ovary (CHO) cells, and a micronucleus study in rats by the oral route. The in vitro studies were performed in the presence and absence of an exogenous metabolic activation system.

[9] = test system: Chinese hamster ovary (CHO) cells; assay: Chromosome aberration study in CHO cells; format: cell-based; conditions: with and without metabolic activation
Protocol: as §2

[10] = 28-day oral toxicity study in dogs (15-day recovery)
Protocol: The L23 vehicle was used. […] All studies in the toxicology program were conducted according to GLP regulations.

## COc1ccc(C2c3[nH]c4ccc(Cl)cc4c3CCN2C(=O)Oc2ccc(Cl)cc2)cc1 (racemic) [Compound #10]
[1]
  Toxicity (ATP viability): No toxicity was observed
Human VEGF-A
  Decrease in intratumoral VEGF levels: 78%
[2]; 16 hours after the first day of dosing (n=3), read-out: Mean trough plasma concentration
  concentration at 16 h: 130 ng/mL and 280 nM
[2]; 16 hours after the last dose on Day 18 (n=4), read-out: Steady state mean trough plasma concentration
  concentration at 16 h: 820 ng/mL
[3]
  Difference vs. vehicle in median number of days to reach 1000 mm^3: 8** Days
[3]; Day 11
  Mean difference in tumor growth rate at the Day that the vehicle-treated tumors taken off study: 59%**
[3]; Xeno
  Final mean terminal tumor size in treatment group: 1460 mm^3
MDA-MB-468 xenografts; 10 mg/kg oral QD
  Mean % Inhibition of Tumor Size vs Vehicle at Day 12: 65* %
  Median Time to Tumor Size ≧1000 mm^3: 25 days
MDA-MB-468 xenografts; MDA-MB-468 xenograft mice, 10 mg/kg QD
  Toxicity on observing the animals: no evidence of toxicity
HT1080 cells; 50 nM for 3 weeks
  Proliferative and migratory capacity after three-week exposure, re-plated in the absence of compound: does not reduce either the proliferative or the migratory capacity
HT1080 cells; 50 nM, 48 hours
  Migration of cells out of control spheroids re-plated in the presence of compound: blocked in their ability to migrate out of the spheroid
[4]
  Changes in respiratory rate, core body temperature, arterial blood gases, arterial pH, or arterial bicarbonate: no dose dependent or biologically significant changes
[5]
  Oral bioavailability: orally bioavailable
[6]
  fraction unbound: ≤ 0.005
CYP2D6
  Inhibition of CYP2D6 isoenzyme activity: inhibits the activity
CYPC19
  Inhibition of CYPC19: No meaningful inhibition
[7]; Sprague Dawley, rat, in vivo, po, 7 days
  Dose of maximal exposures: 120 mg/kg/day
[7]; female rats
  NOAEL for 7-days: 120 mg/kg/day
[7]; male rats
  NOAEL for 7-days: 40 mg/kg/day
[7]; rat, in vivo, 120 mg/kg/day
  Mean prothrombin time (PT) and activated partial thromboplastin time (aPTT): increases
[8]
  Genotoxic effects, bacterial reverse mutation: no evidence of genotoxic effects
[9]
  Genotoxic effects, chromosome aberration in CHO cells: no evidence of genotoxic effects
[10]
  Dose of maximal exposures: 30 mg/kg/dose BID
[10]; high dose
  Target organ of toxicity: small intestine
